{"source": "patent US12466807B2", "about": "“Salt and crystal form of a FAK inhibitor” (Amplia Therapeutics Limited, priority 2019, dated 2025)", "experiment": "Oral exposure (pharmacokinetics) in rats", "assay_type": "in vivo, male Sprague Dawley rats", "conditions": "rat", "experimental": "To compare the exposure of the compound of Formula I in male Sprague Dawley rats following oral administration of the free base and L-tartrate salt at a target dose of 20 mg/kg (as free base equivalent).\nFurther details of the in-life, formulation and bioanalytical procedures together with the data analysis, are described in Appendix 1.\nIn-Life • The exposure of Formula I was studied in overnight-fasted male Sprague Dawley rats that had access to water ad libitum throughout the pre- and post-dose sampling period, and access to food was re-instated 4 h post-dose. In-life details are provided in Table A1-1. • Samples of arterial blood and total urine were collected up to 48 h post-dose. Arterial blood was collected directly into borosilicate vials (at 4° C.) containing heparin, Complete® (a protease inhibitor cocktail) and potassium fluoride to minimise potential for ex vivo degradation of Formula I in blood/plasma samples. Once collected, blood samples were centrifuged, supernatant plasma was removed and stored frozen (−80° C.) until analysis by LC-MS.\nThe extraction of the test compound from plasma samples was conducted using protein precipitation with acetonitrile. Both solution and plasma standards were freshly prepared, with each set of standards comprising at least seven different analyte concentrations. Solution standards were diluted from a stock solution (1 mg/mL in DMSO) with 50% acetonitrile in water. Plasma standards were prepared by spiking blank plasma (50 μL) with solution standards (10 μL) and the internal standard, diazepam (10 μL, 5 μg/mL).\nPlasma samples were similarly prepared, except that blank acetonitrile (10 μL) was added instead of solution standards. Protein precipitation was carried out by the addition of acetonitrile (120 μL), vortexing (20 s) and centrifugation (10,000 rpm) in a microcentrifuge for 3 minutes. The supernatant was subsequently separated and 3 μL injected directly onto the column for LC/MS analysis using conditions tabulated below. All plasma concentrations are expressed as the non-salt equivalent.\nStandard Calculations • Plasma concentration versus time data were analysed using non-compartmental methods (PKSolver Version 2.0). Standard calculations for each pharmacokinetic parameter are listed below.\n[formula] • AUCIV Area under the plasma concentration versus time profile from time zero to infinity after IV administration (reported previously: CDCO_FAK_11_031) • t1/2 Elimination half-life • λ2 Terminal elimination rate constant after IV administration • BA Oral bioavailability • AUCoral Area under the plasma concentration versus time profile from time zero to infinity after oral administration • Cmax Maximum plasma concentration observed after oral administration. • Tmax Time to achieve Cmax • Differences in pharmacokinetic parameters (t½, AUC, Cmax, Tmax and BA) between free base and L-tartrate salt were evaluated using an unpaired t-test testing for significance at α=0.05 (GraphPad Prism, version 7.01)", "key": {"[1]": {"conditions": "PO 20 mg/kg (free base equivalent), mean ± SD, n = 3, listed as L-Tartrate salt, 20 mg/kg"}}, "note": "Marks after values point to notes of the source that are not given here."}
{"smiles": "COc1cc(C2CCN(C)CC2)ccc1Nc1ncc(C(F)(F)F)c(CCc2ccccc2CC(N)=O)n1", "note": "[L-Tartrate]", "values": [{"measurement": "Apparent t1/2", "setting": "[1]", "value": "5.8 ± 0.2", "unit": "h"}, {"measurement": "BA", "setting": "[1]", "value": "71.3 ± 7.5", "unit": "%"}, {"measurement": "Plasma AUC0-inf", "setting": "[1]", "value": "14.6 ± 1.5* h*μM"}, {"measurement": "Tmax", "setting": "[1]", "value": "5.7 ± 1", "unit": "h"}, {"measurement": "Cmax", "setting": "PO 20 mg/kg (free base equivalent), mean ± SD, n = 3, listed as L-Tartrate salt, 20 mg/kg, read-out: Plasma Cmax", "value": "1200 ± 300", "unit": "nM"}, {"measurement": "Cmax greater than the free base", "setting": "PO 20 mg/kg", "value": "approximately 30%"}, {"measurement": "Plasma AUC compared with the free base", "setting": "PO 20 mg/kg", "value": "significantly higher"}, {"measurement": "Adverse reactions or compound-related side effects", "setting": "PO 20 mg/kg, 48 h sampling period", "value": "No adverse reactions or compound-related side effects were observed"}, {"measurement": "% Dose in urine (unchanged Formula I)", "setting": "PO 20 mg/kg, pooled urine up to 48 h, listed as L-Tartrate salt, 20 mg/kg", "value": "0.341 ± 0.042", "unit": "%"}, {"measurement": "AUC greater than the free base", "setting": "PO 20 mg/kg, P<0.05", "value": "~50", "unit": "%"}, {"measurement": "N-demethylation metabolite of Formula I", "setting": "plasma and urine after PO 20 mg/kg, not quantified", "value": "detected in plasma and urine"}]}
